Data from patent US20060252807A1, “Novel ortho-terphenyl inhibitors of p38 kinase and methods of treating inflammatory disorders” (Kalypsys, Inc., priority 2005, published 2006).

biological target: T1, active p38 alpha enzyme (Upstate Biotechnology) (Homo sapiens, UniProt Q16539); test: p38α biochemical assay (ATP turnover, luminescent detection, Cambrex PKlight); conditions: p38α biochemical assay, Table 1 Biological Activity
T1 construct: purchased Upstate Biotechnology
Summary of the method: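 Luminescent PKlight readout of total ATP consumption follows a 2 h, 30C kinase reaction. Enzyme and MapkapK2 substrate run with 1.4 uM ATP (final) in buffer containing Mg2+, Ca2+, chelators, glycerol, reducing agent and BSA; test compounds added by pintool from DMSO.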

T1 sequence (Q16539 whole entry): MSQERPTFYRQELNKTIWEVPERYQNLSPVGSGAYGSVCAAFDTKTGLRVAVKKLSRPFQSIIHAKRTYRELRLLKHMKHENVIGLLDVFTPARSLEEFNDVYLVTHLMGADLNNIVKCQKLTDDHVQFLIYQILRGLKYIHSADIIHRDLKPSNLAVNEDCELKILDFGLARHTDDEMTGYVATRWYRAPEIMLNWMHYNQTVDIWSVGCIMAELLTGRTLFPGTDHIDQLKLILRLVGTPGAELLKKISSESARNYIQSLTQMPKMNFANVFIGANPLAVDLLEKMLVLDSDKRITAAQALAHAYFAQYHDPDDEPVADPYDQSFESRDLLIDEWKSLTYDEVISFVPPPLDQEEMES

Question: CC(C)NC(=O)c1csc(-c2oc(CN3CCN(C(=O)C4CN(C(=O)OC(C)(C)C)CCN4)CC3)nc2-c2ccc(F)cc2)n1 (stereo not shown) [Example 551] was tested. Which IC50 did it give?
Answer: > 1 µM

Question: Which IC50 does the source give for Cc1onc(-c2ccc(F)cc2)c1-c1csc(C(=O)NC(C)C)n1 [Example 34] here?
Answer: ≤ 1 µM

Question: Which IC50 does the source give for CC(C)NC(=O)c1csc(-c2oc(CNC(=O)c3ccccc3Oc3ccccc3)nc2-c2ccc(F)cc2)n1 [Example 289] here?
Answer: > 1 µM

Question: For CC(C)NC(=O)c1csc(-c2oc(CN3CCN(C(=O)C4CN(C(=O)OC(C)(C)C)CCN4)CC3)nc2-c2ccc(F)cc2)n1 (stereo not shown) [Example 552], which IC50 is on record?
Answer: > 1 µM

Question: How did the IC50 turn out when Cc1nc(Br)sc1C(=O)NCc1onc(-c2ccc(F)cc2)c1-c1nc(C(=O)NC(C)C)cs1 [Example 777] was run?
Answer: > 1 µM

Question: With CC(C)NC(=O)c1csc(-c2c(-c3ccc(F)cc3)noc2CNC(=O)c2ccc(Cl)cc2Cl)n1 [Example 727] as the molecule, how does the IC50 read?
Answer: > 1 µM

Question: For CC(C)NC(=O)c1csc(-c2oc(CN3CCN(C(=O)c4ccc([N+](=O)[O-])c(O)c4)CC3)nc2-c2ccc(F)cc2)n1 [Example 469], which IC50 is on record?
Answer: > 1 µM

Question: Cc1nc(-c2ccc(F)cc2)c(-c2nc(C(=O)NCCO)cs2)s1 [Example 49, 4′-(4-Fluoro-phenyl)-2′-methyl-|2,5′|bithiazolyl-4-carboxylic acid (2-hydroxy-ethyl)-amide] was tested. Which IC50 did it give?
Answer: ≤ 1 µM

Question: How did the IC50 turn out when CC(C)NC(=O)c1csc(-c2oc(CNC(=O)C(C)c3ccc(O)cc3)nc2-c2ccc(F)cc2)n1 (stereo not shown) [Example 183] was run?
Answer: ≤ 1 µM

Question: Which IC50 does the source give for CC(=O)NC(Cc1ccc(O)cc1)C(=O)NCc1nc(-c2ccc(F)cc2)c(-c2nc(C(=O)NC(C)C)cs2)o1 (stereo not shown) [Example 305] here?
Answer: ≤ 1 µM

Question: Which IC50 does the source give for CC(C)NC(=O)c1csc(-c2oc(CN3CCN(C(=O)c4ccccc4C(F)(F)F)CC3)nc2-c2ccc(F)cc2)n1 [Example 486] here?
Answer: > 1 µM

Question: Which IC50 does the source give for CC(=O)c1ccccc1C(=O)NCc1nc(-c2ccc(F)cc2)c(-c2nc(C(=O)NC(C)C)cs2)o1 [Example 170] here?
Answer: > 1 µM

Question: How did the IC50 turn out when CC(C)NC(=O)c1csc(-c2oc(CNC(=O)c3ccncc3Cl)nc2-c2ccc(F)cc2)n1 [Example 156] was run?
Answer: ≤ 1 µM

Question: CC(=O)c1cccc(C(=O)NCc2nc(-c3ccc(F)cc3)c(-c3nc(C(=O)NC(C)C)cs3)o2)c1 [Example 169] was tested. Which IC50 did it give?
Answer: > 1 µM

Question: How did the IC50 turn out when CC(C)NC(=O)c1csc(-c2oc(CNC(=O)c3ccccc3[N+](=O)[O-])nc2-c2ccc(F)cc2)n1 [Example 184] was run?
Answer: ≤ 1 µM

Question: With CC(C)NC(=O)c1csc(-c2oc(CNC(=O)C(C(C)C)N(C)C(=O)OC(C)(C)C)nc2-c2ccc(F)cc2)n1 (stereo not shown) [Example 318] as the molecule, how does the IC50 read?
Answer: > 1 µM

Question: How did the IC50 turn out when CC(C)NC(=O)c1csc(-c2c(-c3ccc(F)cc3)noc2CNC(=O)/C=C/c2ccc3c(c2)OCO3)n1 [Example 730] was run?
Answer: > 1 µM

Question: For CC(C)NC(=O)c1csc(-c2oc(CNC(=O)CCc3cccc(C(F)(F)F)c3)nc2-c2ccc(F)cc2)n1 [Example 300], which IC50 is on record?
Answer: ≤ 1 µM

Question: How did the IC50 turn out when Cc1onc(-c2ccc(Cl)cc2)c1-c1ccn(C(=O)N(C)C(C)C)n1 [Example 13, 3-|3-(4-Chloro-phenyl)-5-methyl-isoxazol-4-yl|-pyrazole-1-carboxylic acid isopropyl-methyl-amide] was run?
Answer: > 1 µM

Question: Which IC50 does the source give for CC(C)NC(=O)c1csc(-c2oc(CN3CCN(C(=O)c4cccc(Br)n4)CC3)nc2-c2ccc(F)cc2)n1 [Example 513] here?
Answer: > 1 µM

Question: Which IC50 does the source give for CC(C)NC(=O)c1csc(-c2oc(CNC(=O)c3ccc(Oc4ccccc4)cc3)nc2-c2ccc(F)cc2)n1 [Example 290] here?
Answer: > 1 µM

Question: With COc1ccc([N+](=O)[O-])c(C(=O)N2CCN(Cc3nc(-c4ccc(F)cc4)c(-c4nc(C(=O)NC(C)C)cs4)o3)CC2)c1 [Example 502] as the molecule, how does the IC50 read?
Answer: > 1 µM

Question: Which IC50 does the source give for CC(C)NC(=O)c1csc(-c2oc(CN3CCN(C(=O)/C=C/c4ccc5c(c4)OCO5)CC3)nc2-c2ccc(F)cc2)n1 [Example 492] here?
Answer: > 1 µM

Question: For CC(C)NC(=O)c1csc(-c2oc(CN3CCN(C(=O)/C=C/c4ccc(Cl)cc4)CC3)nc2-c2ccc(F)cc2)n1 [Example 467], which IC50 is on record?
Answer: > 1 µM

same assay, conditions: p38α kinase; Table 1 Biological Activity

Question: For Cc1nc(-c2ccc(F)cc2)c(-c2nc(C(=O)NCc3ccc(N(C)C)cc3)cs2)s1 [Example 1824], which IC50 is on record?
Answer: ≤ 1 µM

Question: Which IC50 does the source give for CC(C)(C)OC(=O)NCCNC(=O)c1csc(-c2c(-c3ccc(F)cc3)n[nH]c2C2CCNCC2)n1 [Example 2133] here?
Answer: > 1 µM

Question: Which IC50 does the source give for O=C(NCCCn1ccnc1)c1csc(-c2c(-c3ccc(F)cc3)n[nH]c2C2CCNCC2)n1 [Example 2083] here?
Answer: > 1 µM

Question: With CC(C)NC(=O)c1csc(-c2c(-c3ccc(F)cc3)noc2CNCC(C)c2ccccc2)n1 (stereo not shown) [Example 1449] as the molecule, how does the IC50 read?
Answer: > 1 µM

Question: COCC(C)NC(=O)c1csc(-c2c(-c3ccc(F)cc3)n[nH]c2C2CCNCC2)n1 (stereo not shown) [Example 2050] was tested. Which IC50 did it give?
Answer: > 1 µM

Question: For Cc1ccccc1C(=O)N1CCC(c2[nH]nc(-c3ccc(F)cc3)c2-c2nc(C(=O)NC(C)C)cs2)CC1 [Example 836], which IC50 is on record?
Answer: ≤ 1 µM

Question: For Cc1nc(-c2ccc(F)cc2)c(-c2nc(C(=O)N3CCC(O)(c4ccc(Cl)cc4)CC3)cs2)s1 [Example 1940], which IC50 is on record?
Answer: > 1 µM

Question: How did the IC50 turn out when CC(C)NC(=O)c1csc(-c2oc(CNc3ccc(F)cc3F)nc2-c2ccc(F)cc2)n1 [Example 1331] was run?
Answer: > 1 µM

Question: Which IC50 does the source give for CC(C)NC(=O)c1csc(-c2c(-c3ccc(F)cc3)noc2CNCCc2ccc(Cl)cc2)n1 [Example 1479] here?
Answer: > 1 µM

Question: How did the IC50 turn out when O=C(NCc1cc(F)cc(F)c1)c1csc(-c2c(-c3ccc(F)cc3)n[nH]c2C2CCNCC2)n1 [Example 2113] was run?
Answer: > 1 µM

Question: With CC(C)(C)c1ccc(CNC(=O)c2csc(-c3c(-c4ccc(F)cc4)n[nH]c3C3CCNCC3)n2)cc1 [Example 2135] as the molecule, how does the IC50 read?
Answer: > 1 µM

Question: CC(C)NC(=O)c1csc(-c2oc(CN3CCCC(c4ccc(C(F)(F)F)cc4)C3)nc2-c2ccc(F)cc2)n1 (stereo not shown) [Example 1303] was tested. Which IC50 did it give?
Answer: > 1 µM

Question: With COc1ccc(CCN(C)Cc2nc(-c3ccc(F)cc3)c(-c3nc(C(=O)NC(C)C)cs3)o2)cc1OC [Example 1272] as the molecule, how does the IC50 read?
Answer: > 1 µM

Question: With CC(C)NC(=O)c1csc(-c2oc(CNCc3ccc4c(c3)OCO4)nc2-c2ccc(F)cc2)n1 [Example 1142] as the molecule, how does the IC50 read?
Answer: > 1 µM

Question: For CC(C)NC(=O)c1csc(-c2oc(CN3C(C)CCCC3C)nc2-c2ccc(F)cc2)n1 (stereo not shown) [Example 1208], which IC50 is on record?
Answer: > 1 µM

Question: Which IC50 does the source give for Cc1nc(-c2ccc(F)cc2)c(-c2nc(C(=O)Nc3cccc(C(F)(F)F)c3)cs2)s1 [Example 2006] here?
Answer: > 1 µM

Question: With COc1ccccc1N1CCN(C(=O)c2csc(-c3sc(C)nc3-c3ccc(F)cc3)n2)CC1 [Example 1921] as the molecule, how does the IC50 read?
Answer: > 1 µM

Question: How did the IC50 turn out when CC(=O)Oc1ccccc1C(=O)N1CCC(c2[nH]nc(-c3ccc(F)cc3)c2-c2nc(C(=O)NC(C)C)cs2)CC1 [Example 930] was run?
Answer: > 1 µM

Question: For CC(C)NC(=O)c1csc(-c2c(-c3ccc(F)cc3)n[nH]c2C2CCN(C(=O)/C=C/c3ccc4c(c3)OCO4)CC2)n1 [Example 969], which IC50 is on record?
Answer: > 1 µM

Question: With CC(C)NC(=O)c1csc(-c2c(-c3ccc(F)cc3)n[nH]c2C2CCN(C(=O)C3Cc4ccccc4CN3C(=O)OC(C)(C)C)CC2)n1 (stereo not shown) [Example 1047] as the molecule, how does the IC50 read?
Answer: > 1 µM

Question: With CC(C)NC(=O)c1csc(-c2c(-c3ccc(F)cc3)noc2CNCCC2CCCN2C)n1 (stereo not shown) [Example 1438] as the molecule, how does the IC50 read?
Answer: > 1 µM

Question: For Cc1nc(-c2ccc(F)cc2)c(-c2nc(C(=O)N(C)C3CCCCC3)cs2)s1 [Example 1857], which IC50 is on record?
Answer: > 1 µM

Question: CCOc1ccc(OCC)c(NCc2nc(-c3ccc(F)cc3)c(-c3nc(C(=O)NC(C)C)cs3)o2)c1 [Example 1366] was tested. Which IC50 did it give?
Answer: > 1 µM

Question: With Cc1ccc(CNCc2nc(-c3ccc(F)cc3)c(-c3nc(C(=O)NC(C)C)cs3)o2)cc1C [Example 1120] as the molecule, how does the IC50 read?
Answer: > 1 µM

Question: Which IC50 does the source give for CC(C)NC(=O)c1csc(-c2oc(CNC3CCN(Cc4ccccc4)CC3)nc2-c2ccc(F)cc2)n1 [Example 1174] here?
Answer: > 1 µM

Question: Cc1nc(-c2ccc(F)cc2)c(-c2nc(C(=O)Nc3ccc4c(c3)OCO4)cs2)s1 [Example 1987] was tested. Which IC50 did it give?
Answer: ≤ 1 µM

Question: With CC(C)NC(=O)c1csc(-c2oc(CN3CCN(c4ccccc4Cl)CC3)nc2-c2ccc(F)cc2)n1 [Example 1301] as the molecule, how does the IC50 read?
Answer: > 1 µM

Question: How did the IC50 turn out when COc1ccc(CCN(C)Cc2onc(-c3ccc(F)cc3)c2-c2nc(C(=O)NC(C)C)cs2)cc1OC [Example 1598] was run?
Answer: > 1 µM

Question: COc1ccc(OC)c(CCNCc2nc(-c3ccc(F)cc3)c(-c3nc(C(=O)NC(C)C)cs3)o2)c1 [Example 1171] was tested. Which IC50 did it give?
Answer: > 1 µM

Question: For Cc1nc(-c2ccc(F)cc2)c(-c2nc(C(=O)N3CCN(c4ccc(F)cc4F)CC3)cs2)s1 [Example 1927], which IC50 is on record?
Answer: > 1 µM

Question: CC(C)NC(=O)c1csc(-c2c(-c3ccc(F)cc3)noc2CNC2CCCc3ccccc32)n1 (stereo not shown) [Example 1671] was tested. Which IC50 did it give?
Answer: > 1 µM

Question: How did the IC50 turn out when CCN(CC)CCNC(=O)c1csc(-c2c(-c3ccc(F)cc3)n[nH]c2C2CCNCC2)n1 [Example 2072] was run?
Answer: > 1 µM

Question: How did the IC50 turn out when Cc1ccc(C)c(NCc2nc(-c3ccc(F)cc3)c(-c3nc(C(=O)NC(C)C)cs3)o2)c1 [Example 1317] was run?
Answer: > 1 µM

Question: Which IC50 does the source give for Cc1ccc(CCNC(=O)c2csc(-c3c(-c4ccc(F)cc4)n[nH]c3C3CCNCC3)n2)cc1 [Example 2090] here?
Answer: > 1 µM

Question: For CC(C)NC(=O)c1csc(-c2c(-c3ccc(F)cc3)noc2CN(CCC#N)Cc2cccnc2)n1 [Example 1566], which IC50 is on record?
Answer: > 1 µM

Question: CC(C)NC(=O)c1csc(-c2oc(CN3CCN(c4ccc(C(C)(C)C)cc4)CC3)nc2-c2ccc(F)cc2)n1 [Example 1293] was tested. Which IC50 did it give?
Answer: > 1 µM

Question: For COc1cccc(CNCc2nc(-c3ccc(F)cc3)c(-c3nc(C(=O)NC(C)C)cs3)o2)c1 [Example 1126], which IC50 is on record?
Answer: > 1 µM

Question: CCOC(=O)C1CCCN(C(=O)c2csc(-c3sc(C)nc3-c3ccc(F)cc3)n2)C1 (stereo not shown) [Example 1888] was tested. Which IC50 did it give?
Answer: > 1 µM

Question: With CC(C)NC(=O)c1csc(-c2oc(CN(CCC#N)Cc3ccccc3)nc2-c2ccc(F)cc2)n1 [Example 1155] as the molecule, how does the IC50 read?
Answer: > 1 µM

Question: Cc1nc(-c2ccc(F)cc2)c(-c2nc(C(=O)N3CCN(c4ccccc4Cl)CC3)cs2)s1 [Example 1952] was tested. Which IC50 did it give?
Answer: > 1 µM

Question: Which IC50 does the source give for CCC(=O)C(=O)N1CCC(c2[nH]nc(-c3ccc(F)cc3)c2-c2nc(C(=O)NC(C)C)cs2)CC1 [Example 816] here?
Answer: > 1 µM

Question: For CC(=O)c1ccc(N2CCN(Cc3nc(-c4ccc(F)cc4)c(-c4nc(C(=O)NC(C)C)cs4)o3)CC2)cc1 [Example 1280], which IC50 is on record?
Answer: > 1 µM

Question: CC(C)NC(=O)c1csc(-c2c(-c3ccc(F)cc3)n[nH]c2C2CCN(C(=O)c3cc4ccccc4s3)CC2)n1 [Example 921] was tested. Which IC50 did it give?
Answer: > 1 µM
